The source of these data is patent US7842709B2, “Method for treating inflammatory diseases of the digestive tract” (Ore Pharmaceuticals Inc., priority 2006, dated 2010).

Data set [1] deals with basal NF-κB dependent transcription. In words: In vivo basal NF-κB dependent transcription, abdominal imaging of NF-κB:Luc mice. The following applies: 300 mg/kg subcutaneous, 4 hours; p<0.01. The source says: GL1001 was further tested for in vivo anti-inflammatory activity by examining its effects on basal levels of NF-κB dependent transcription in mice engineered in the germline with a construct containing an NF-κB enhancer linked to a luciferase gene (i.e., NF-κB:Luc mice), such that this NF-κB reporter construct is present in all cells of the mice.
More particularly, transgenic NF-κB:Luc mice were generated using three NF-κB response elements from the Igκ light chain promoter fused to a firefly luciferase gene as described by Carlsen et al. (2002) J. Immunol. 168:1441-1446. Pronuclear microinjection of purified construct DNA was used to generate transgenic founders in the C57BL/6 XCBA/J background. Founders were subsequently back crossed to the C57BL/6 albino background. […] Signal data were also quantitated and archived using the Living Image® software. Photons of light were quantitated using an oval region of interest (ROI) of varying sizes depending on the procedure, as described further below.
To test for in vivo effects of GL1001 on basal levels of NF-κB dependent transcription, male NF-κB:Luc mice were subjected to quantitative in vivo imaging of the abdominal area (using a fixed ROI of 2.76×3.7 cm) as described above, immediately before, and at 2, […]

The test system of data set [2] is NF-κB dependent transcription in recombinant HeLa reporter cells. The data set can be described thus: TNFα-induced activation of NF-κB dependent transcription, luciferase reporter in HeLa cells. The format is cell-based. The following applies: TNFα 20 ng/ml, 6 hours. The source says: To test the ACE2 inhibitor GL1001 for anti-inflammatory activity relevant to IBD, effects of the compound on activation of NF-κB dependent transcription by TNFα were examined in recombinant reporter cells containing a construct with a luciferase reporter gene under control of NF-κB dependent regulatory sequences, thereby allowing detection of NF-κB dependent transcription by measuring reporter enzyme using a conventional luciferase activity assay based on detection of generated light.
In particular, HeLa cells (American Type Culture Collection) were grown in Dulbecco's modified Eagles medium (DMEM) supplemented with 10% fetal calf serum and transiently transfected with an NF-κB-luc construct (Stratagene, Inc.), as follows (with all incubation steps at 37 C unless otherwise indicated). Cells were seeded and grown to about 70% confluency in a 10 cm cell culture dish. Plasmid DNA (10 μg) was added to 1 ml serum free DMEM media in a tube. Fugene 6 transfection reagent (30 μl) (Roche) was then pipetted slowly into the tube and the contents were gently mixed by inversion. The mixture was incubated at room temperature for 15 minutes and then added dropwise to cells in one 10 cm dish. […] Bioluminescence was then measured using a Veritas luminometer (Turner BioSystems). […]
For orientation: Reporter assays use an easily measured gene product as a stand-in for the process of interest.

Data set [3] concerns activator protein-1 (AP-1). The data set can be described thus: In vivo basal reporter luciferase expression in AP-1:Luc mice. The following applies: data not shown.
The subject of data set [4] is LPS induced NF-κB dependent transcription. The data set can be described thus: LPS induced NF-κB dependent transcription in extracted organs of NF-κB:Luc mice (luciferase lysate assay). The data set is classed as in vivo. The following applies: 0.5 mg/kg LPS and GL1001 at 30 mg/1 g vs LPS alone (FIG. 6). The source says:
For luciferase assays, organs were extracted and snap frozen in liquid nitrogen. All tissue samples were placed in lysis buffer with inhibitors (Passive Lysis Buffer (Promega) and Complete Mini Protease Inhibitor Cocktail (Roche, Indianapolis, Ind.)), and were homogenized using a tissue homogenizer (Handishear, Hand-held homogenizer, VirTis, Gardiner, N.Y.). Tissue homogenates were centrifuged and clarified lysates were used for luminometer assays and western blots. For the luminometer assays, Luciferase Assay Substrate (Luciferase Assay System, Promega) was prepared as indicated by the manufacturer and placed in disposable cuvettes. […] Background luminescence readings were obtained and the background readings were subtracted from the luminescent data. Protein concentrations were determined using the BCA Protein Assay Kit (Pierce, Rockford, Ill.) following the manufacturer's protocols and analyzed using a VERSAmax tunable microplate reader and associated Softmax Pro version 3.1.2 software (Molecular Devices, Sunnyvale Calif.). The luminescence for each of the protein lysates was calculated as arbitrary units of light per microgram of protein. […]
GL1001 was further tested for in vivo anti-inflammatory activity by examining its effects on bacterial LPS induced NF-κB dependent transcription, in NF-κB:Luc mice. […] Luciferase signal was quantitated from several regions of interest. […]

The test system of another data set is ulcerative colitis. To be noted: 5 mg/kg infusions; cited from earlier work.
The subject of another data set is Crohn's disease. The following applies: cited from earlier work.
In another data set the test system is NF-κB activity. To be noted: at least in CD; cited from earlier work.
A further data set has as its system DSS-induced colitis. In words: DSS-induced colitis in Balb/c mice, Example 7. The format is in vivo. As for the experimental part: A study was designed with six groups of Balb/c mice: naïve control, DSS followed by vehicle, DSS followed by GL1001 30 mg/kg/day, DSS followed by GL1001 100 mg/kg/day, DSS followed by GL1001 300 mg/kg/day, and DSS followed by sulfasalazine 150 mg/kg/day. Administration of DSS was via drinking water, from day 1 to day 6 of the study. […] Administration of vehicle, GL1001 and sulfasalazine was subcutaneous, twice daily, from day 6 until termination of the study (day 16). Body weight of each animal was measured at days 1, 3 and 5 (pre-initiation of GL1001 or sulfasalazine treatment) and at days 7, 9, 11 and 13 (post-initiation of GL1001 or sulfasalazine treatment). On these same days, disease activity measurements were recorded, including: • (a) rectal prolapse (0=no prolapse, 1=partial prolapse, 2=moderate prolapse, 3=full prolapse); • (b) stool consistency (0=solid pellet, 1=semi-solid, 2=soft stool, 3=diarrhea); and • (c) fecal occult blood (0=no blood present, 1=occult blood, 2=gross blood). At termination of the study, colon length was determined and histological analysis was conducted as in Example 6.

The mark [5] stands for this setting: after a single dose, 5 mg/kg infusion.

For the compound `CC(C)C[C@H](N[C@@H](Cc1cncn1Cc1cc(Cl)cc(Cl)c1)C(=O)O)C(=O)O` [GL1001, (S,S)-2-[1-carboxy-2-[3-(3,5-dichlorobenzyl)-3H-imidazol-4-yl]-ethylamino]-4-methylpentanoic acid], in data set [1], the “inhibition of basal in vivo levels of NF-κB dependent transcription in abdominal ROI” value is on record as “over 40%”. For the same compound, in data set [2] (8 nM), the “inhibition of TNFα induced activation of NF-κB dependent transcription” value was “over 80%”. In addition, the “maximal inhibition of TNFα induced activation of NF-κB dependent transcription” value in data set [2] (0.2 μM) is “over 95%”. Moreover, in data set [3], the “effect on basal in vivo levels of reporter luciferase expression in AP-1:Luc mice” value is “no significant effect”. Also, in data set [4], the “reduction of LPS induced NF-κB-dependent transcription in stomach” value is listed as “about 37 fold”.
On to “Infliximab: anti-TNFα monoclonal antibody”, for which the “response rates in UC” value with ulcerative colitis is listed as 50-70%. In the data set on Crohn's disease (setting [5]), the “induction of remission rate in CD” value is 50% and the “response rate in CD” value is 80%. Moreover, in the data set on Crohn's disease (human, in vivo), the “patients in whom the fistula responds (closes), fistulizing CD” value is reported as 68% and the “patients who develop an abscess, fistulizing CD” value is 12%. Moreover, in the data set with NF-κB activity, the NF-κB activity entry was “decrease”.
For `O=C(O)c1cc(/N=N/c2ccc(S(=O)(=O)Nc3ccccn3)cc2)ccc1O` [sulfasalazine], the “reduction in colon length” value in the data set on DSS-induced colitis (sulfasalazine 150 mg/kg b.i.d. subcutaneous (FIG. 19)) was “inhibits reduction”. In the data set with DSS-induced colitis (sulfasalazine 150 mg/kg b.i.d. subcutaneous (FIG. 20)), the “distal colon inflammation score” value is “reduces”. Moreover, the “distal colon crypt score” value in the data set with DSS-induced colitis (sulfasalazine 150 mg/kg b.i.d. subcutaneous (FIG. 21)) is given as “reduces”. For the same compound, in the data set with DSS-induced colitis (sulfasalazine 150 mg/kg b.i.d. subcutaneous (FIG. 23)), the “distal colon total histopathology score” value is reported as “reduces”. Moreover, the stool consistency result in the data set on DSS-induced colitis (sulfasalazine 150 mg/kg b.i.d. subcutaneous, day 7 (FIG. 17)) is recorded as “No significant effect”. Also, in the data set on DSS-induced colitis (sulfasalazine 150 mg/kg b.i.d. subcutaneous, day 7 (FIG. 18)), the fecal occult blood entry is “reduces”. Moreover, the percentage weight loss entry in the data set on DSS-induced colitis (sulfasalazine 150 mg/kg b.i.d. subcutaneous, day 9 (FIG. 15)) is “No significant effect”. In the data set on DSS-induced colitis (sulfasalazine 150 mg/kg b.i.d. subcutaneous, day 9 (FIG. 16)), the rectal prolapse result was “reduces”.
